Assay results: PubChem BioAssay (NCI)
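48-hour exposure; five concentrations; linearly interpolated endpoints. TGI denotes the concentration required for complete inhibition of growth.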

Columns and labels:
Experiment in all cases: NCI tumour cell line growth inhibition, 48 h
[1] = test system: HOP-62 NSCLC
[2] = test system: SF-268 CNS
[3] = test system: OVCAR-5 ovarian
[4] = test system: XF 498 CNS
[5] = test system: SNB-75 CNS
[6] = test system: ACHN renal
[7] = test system: HCT-116 colon
[8] = test system: DMS 114 small cell lung
[9] = test system: SK-MEL-5 melanoma
[10] = test system: A549 NSCLC
[11] = test system: EKVX NSCLC
[12] = test system: DMS 273 small cell lung
[13] = test system: K-562 leukemia
[14] = test system: OVCAR-8 ovarian
[15] = test system: KM12 colon
[16] = test system: LOX IMVI melanoma
[17] = test system: UO-31 renal
[18] = test system: NCI-H226 lung
[19] = test system: IGROV1 ovarian
[20] = test system: NCI-H522 lung
[21] = test system: MALME-3M melanoma
[22] = test system: TK-10 renal
[23] = test system: M19-MEL melanoma
[24] = test system: COLO 205 colon
[25] = test system: SK-OV-3 ovarian
[26] = test system: SF-539 CNS
[27] = test system: RPMI-8226 leukemia
[28] = test system: CAKI-1 renal
[29] = test system: OVCAR-3 ovarian
[30] = test system: SK-MEL-2 melanoma
[31] = test system: A498 renal
[32] = test system: SW-620 colon
[33] = test system: CCRF-CEM leukemia
[34] = test system: UACC-62 melanoma
[35] = test system: HOP-18 NSCLC
[36] = test system: SNB-78 CNS
[37] = test system: HCT-15 colon
[38] = test system: HL-60(TB) leukemia
[39] = test system: SF-295 CNS
[40] = test system: M14 melanoma
[41] = test system: SNB-19 CNS
[42] = test system: HT29 colon
[43] = test system: SR leukemia
[44] = test system: 786-0 renal
[45] = test system: RXF 393 renal
[46] = test system: LXFL 529 NSCLC
[47] = test system: DLD-1 colon
[48] = test system: SN12C renal
[49] = test system: KM20L2 colon
[50] = test system: NCI-H460 lung
[51] = test system: U251 CNS
[52] = test system: OVCAR-4 ovarian
[53] = test system: HOP-92 NSCLC
[54] = test system: UACC-257 melanoma
[55] = test system: NCI-H23 lung
[56] = test system: SK-MEL-28 melanoma
[57] = test system: MOLT-4 leukemia
[58] = test system: HCC-2998 colon

Measured: TGI

O=C(Nc1nc(=S)c2c(ncn2CCO)[nH]1)c1ccccc1
not listed: [55] | [56] | [57] | [58]
> 100 µM: all other assays above

CC(c1ccccc1)/[N+]([O-])=C/c1ccccc1 (stereo not given)
not listed: [9] | [18] | [21] | [28] | [30] | [34] | [37] | [40] | [43] | [44] | [48] | [52]
> 100 µM: all other assays above
